Source: the NIST ThermoML archive (doi:10.1021/je900878j)

Details: 101.33 kPa, Liquid; for electrical conductivity: Symmetrical Wheatstone bridge; for viscosity: Capillary tube (Ostwald / Ubbelohde) method; for mass density: Vibrating tube method

CCn1cc[n+](C)c1.O=S(=O)([N-]S(=O)(=O)C(F)(F)F)C(F)(F)F
Details	electrical conductivity [S/m]	mass density [kg/m3]	viscosity [mPa·s]
248.15 K	0.0705	–	–
258.15 K	0.1475	–	–
263.15 K	–	–	175.1
268.15 K	0.2671	–	128.8
278.15 K	0.4347	–	75.13
288.15 K	0.6526	–	47.78
293.15 K	–	–	39.07
298.15 K	0.921	1519.3	32.46
303.15 K	1.074	1514.2	27.3
313.15 K	1.414	1504.3	19.97
323.15 K	1.799	1494.3	15.17
333.15 K	2.224	1484.4	11.87
343.15 K	2.689	–	9.54
353.15 K	3.189	–	7.83

CCCCn1cc[n+](C)c1.F[B-](F)(F)F [1-butyl-3-methylimidazolium tetrafluoroborate]
Details	electrical conductivity [S/m]	mass density [kg/m3]	viscosity [mPa·s]
258.15 K	0.02318	–	–
268.15 K	0.05477	–	–
278.15 K	0.1137	–	–
288.15 K	0.2116	–	–
293.15 K	–	–	141.1
298.15 K	0.3587	1202.4	107.6
303.15 K	0.4543	1198.6	83.3
313.15 K	0.6913	1191.6	52.81
323.15 K	0.9942	1184.5	35.53
333.15 K	1.364	1177.3	25.11
343.15 K	1.8	–	18.48
353.15 K	2.301	–	14.06

CCn1cc[n+](C)c1.N#CN=C=[N-] [1-ethyl-3-methylimidazolium dicyanamide]
Details	electrical conductivity [S/m]	mass density [kg/m3]	viscosity [mPa·s]
238.15 K	0.1546	–	–
248.15 K	0.3404	–	–
258.15 K	0.6305	–	75.38
263.15 K	–	–	56.81
268.15 K	1.035	–	44.24
273.15 K	–	–	35.22
278.15 K	1.556	–	28.59
288.15 K	2.189	–	19.81
293.15 K	–	–	16.85
298.15 K	2.928	1100.8	14.5
303.15 K	3.342	1097.5	12.62
313.15 K	4.226	1091	9.8
323.15 K	5.194	1084.4	7.83
333.15 K	6.236	1077.9	6.43
343.15 K	7.343	–	5.36
353.15 K	8.509	–	4.55

CCn1cc[n+](C)c1.F[B-](F)(F)F [1-ethyl-3-methylimidazolium tetrafluoroborate]
Details	electrical conductivity [S/m]	mass density [kg/m3]	viscosity [mPa·s]
238.15 K	0.04188	–	–
248.15 K	0.1088	–	–
258.15 K	0.2333	–	–
268.15 K	0.4316	–	–
269.15 K	–	–	145
273.15 K	–	–	114.1
278.15 K	0.7168	–	86.88
288.15 K	1.096	–	54.1
293.15 K	–	–	44.19
298.15 K	1.573	1288.8	36.17
303.15 K	1.847	1285	30.13
313.15 K	2.466	1277.5	21.77
323.15 K	3.176	1269.9	16.35
333.15 K	3.97	1262.4	12.7
343.15 K	4.843	–	10.12
353.15 K	5.794	–	8.23
